In one experiment the test system is GST-fused LC8. The experiment is described as follows: GST pull-down of LC8 and sLCA5. To be noted: GST-LC8 bait, MBP-, 6x-His-fused sLCA5 prey, PBS, 1 mM DTT, room temperature; result in words. Type of experiment: binding. The procedure: For the pull-down experiments, GST-fused LC8 was used as bait, and MBP-, 6x-His-fused LCA5 variants as prey. For controls, GST and MBP were used. Proteins were expressed in 100 ml cultures of E. coli BL21 (DE3) Rosetta cells as described above. Cells were harvested, resuspended in 5 ml PBS supplemented with 1 mg/ml lysozyme and 1 mM DTT, sonicated and clarified by centrifugation. 20 μl of Glutathione Sepharose 4B (Macherey–Nagel) (75%) resin was used for each experiment. Baits were incubated with the resin for 1 h at room temperature, then washed with PBS supplemented with 1 mM DTT. Prey proteins were added and incubated for one hour. The beads were washed and eluted by boiling in a 2 × SDS sample buffer and analyzed in tricine SDS page according to the protocol of Schagger et al[43].

In experiment [1] the target is T1, LC8 (Homo sapiens, UniProt Q96FJ2).
T1 construct: 6xHis (N); made in house; host or cells: E. coli BL21 (DE3) Rosetta
The experiment is described as follows: isothermal titration calorimetry, LCA5 peptide injected to LC8. To be noted: MicroCal PEAQ-ITC, PBS pH 7.4, 1 mM TCEP, 25 °C; peptide injected 18 x 2 μl into LC8. It is filed as binding. As to the method: (§1) LC8 and MBP-fused LCA5 constructs were prepared in PBS supplemented with 1 mM TCEP. Before measurement, protein samples were dialyzed overnight in PBS pH 7.4 (Orange Scientific, OrDial D14 membrane). Peptides were diluted from stock with the buffer used for dialysis. The concentration of samples was determined based on absorbance at 280 nm in the case of proteins, and 205 nm for the peptide. Experiments were performed using MicroCal PEAQ-ITC (Malvern Panalytical), LCA5 peptides were measured at 25 °C, proteins were analyzed at 37 °C. Lebercilin peptide was injected into the cell 18 times 2 μl volumes, with 5 min timing between injections. In case of the protein, LCA5 was placed in the sample cell, and LC8 was injected during 37 injections, 1 μl each. The results were evaluated using MicroCal PEAQ-ITC Analysis Software.
(In general: In ITC the heat of successive injections is recorded.)

Experiment [2] has as its target T1, LC8. The experiment in a line: LC8 binding of the second (CQS) motif at the peptide level. As to conditions: residues 317–324 of LCA5; method not stated; result in words. As to the method:
as §1, with “In case of the protein, LCA5 was placed in the sample cell, and LC8 was injected during 37 injections, 1 μl each.” left out
Fluorescence polarization experiments were carried out at 25 °C in PBS supplemented by 2 mM TCEP and 0.05% Brij using a Synergy H4 (BioTek Instruments) plate reader. […] Briefly, 50 nM labeled BMF peptide was mixed with LC8 in a concentration to achieve 80% saturation, determined by direct titration (12 μM at 80% saturation). Subsequently, the above-mentioned complex was titrated with a two-fold dilution series of competitor LCA5 peptide (DLCTKGVQTME) (start at 500 μM) and the decrease of polarization was recorded. To determine the Kd of the LCA5-peptide-LC8 complex, first the Kd of the BMF-LC8 complex was calculated. […]

The target in experiment [3] is T1, LC8. The experiment is described as follows: direct fluorescence polarization titration of labeled BMF peptide with LC8. It is filed as binding. As to conditions: 50 nM FITC-labeled BMF, PBS, 2 mM TCEP, 0.05% Brij, 25 °C. As to the method: Fluorescence polarization experiments were carried out at 25 °C in PBS supplemented by 2 mM TCEP and 0.05% Brij using a Synergy H4 (BioTek Instruments) plate reader. N-terminally fluorescein 5-isothiocyanate (FITC) labeled, known binding peptide of LC8, BMF (TSQEDKATQTL) was used as a reporter peptide to form LC8-BMF complex and LCA5 was applied to compete the BMF peptide. Briefly, 50 nM labeled BMF peptide was mixed with LC8 in a concentration to achieve 80% saturation, determined by direct titration (12 μM at 80% saturation). Subsequently, the above-mentioned complex was titrated with a two-fold dilution series of competitor LCA5 peptide (DLCTKGVQTME) (start at 500 μM) and the decrease of polarization was recorded. To determine the Kd of the LCA5-peptide-LC8 complex, first the Kd of the BMF-LC8 complex was calculated. The polarization signal recorded at direct titration of BMF peptide with LC8 was plotted against the concentration of LC8. Then the Kd of the BMF-LC8 complex was calculated by the fitting of a direct binding equation in Origin 8. To determinate the Kd of the competitor peptide, the measured polarization was plotted against the concentration of LCA5 peptide in the competitive titration and the data was fitted by the competitive binding equation in Origin 8 where Kd of the BMF-LC8 complex was one of the parameters of the competitive equation. […]
A general note: Polarisation of emitted light reports the rotation of a fluorescent probe.

For experiment [4], the target named is T1, LC8. As to conditions: literature, ref (6)-(10) of supplement, cited from earlier work. An excerpt: According to the standard model of LC8 interactions, the dimeric interface of LC8 presents two interaction sites for partners which also form dimers, implying a 1:1 stoichiometry. Partners with two adjacent binding motifs, like ANA2, follow a 1:2 stoichiometry by binding two LC8[18]. Intriguingly, we observed a 2:1 LCA5:LC8 stoichiometry for the ΔCQS and the ΔVQT mutants, which means that one LC8 dimer binds four LCA5 chains (Supplementary Table S1). A reasonable interpretation is that the native LCA5 is dimeric and thus a pair of LCA5 dimers bind to one dimeric LC8. In such a situation, one i ... || page 10: Composition of complexes Number of LC8 Number of Ratio of LCA5 LC8 binding monomeric binding monomeric LC8 in monomers to LC8 Gene name sites partners in complex complex monomers SWA (6) 1 2 2 1:1 DYNC1I1 (7) 1 2 2 1:1 WDR34-WDR60 3 1+1 6 1:3 (8) ANA2 (9) 2 2 4 1:2 ASCIZ (10) 11 2 22 1:11 sLCA5-WT 2 4 4 1:1 sLCA5-single 1 4 2 2:1 mutants Supplementary Table S1. Stoichiometries of various LC8 binding partners in complex with LC8. Known LC8 binding partners according to literature data always form dimers upon LC8 binding. The stoichiometry is basically 1:1 in case of one LC8 binding sit ...

Where no end group is shown, it is not given here.

T1 sequence (Q96FJ2 whole entry): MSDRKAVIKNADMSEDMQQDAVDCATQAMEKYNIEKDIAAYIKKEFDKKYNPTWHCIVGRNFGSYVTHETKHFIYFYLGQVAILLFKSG

As for “CAAAAAAM: sLCA5 with further alanine mutations introduced into the VQT motif”, the “interaction with LC8 (GST pull-down)” value with GST-fused LC8 is given as “persisted despite the mutations”.

One may read the Kd as the constant that tells how readily two partners part at equilibrium. The low end stands for a tighter complex, the high end for a looser complex. The substance DLCTKGVQTME [LCA5 peptide] returned a Kd at LC8 [1] of 2600 nM. This counts as single-digit micromolar.

As for KNAACQSD, at LC8 [2], the “binding of the second motif to LC8 at the peptide level” value is “could not be verified at the peptide level”.

TSQEDKATQTL [BMF]: on LC8 [3], the “LC8 concentration at 80% saturation of labeled BMF peptide” value was 12 µM.

Regarding “WDR34-WDR60: known LC8 binding partner, literature”, in the experiment with LC8 [4] (composition of complexes), the “Number of monomeric LC8 in complex” value is reported as 6 and the “Number of monomeric binding partners in complex” value is listed as 1+1. In the experiment with LC8 [4], the LC8 binding sites is listed as 3.

The record behind these values is PMC9481538, “The interaction between LC8 and LCA5 reveals a novel oligomerization function of LC8 in the ciliary-centrosome system” (Scientific Reports, 2022).
